From ChEMBL document CHEMBL5385872, “Design and syntheses of a bimolecular STING agonist based on the covalent STING antagonist” (Eur J Med Chem, 2023) come the findings set out here.

Assay [1] relates to Stimulator of interferon genes protein (Homo sapiens), Q86WV6 [C91S]. Briefly: Induction of oligomerization of STING C91S (unknown origin) mutant in human HeLa cells transfected with wild type STING assessed as intracellular puncta formation at 10 uM measured after 1 hr by DAPI staining based immunofluorescence microscopy. The class given is cell-based. Particulars: filed as agonist.
Stimulator of interferon genes protein (Homo sapiens), Q86WV6 [C91S], sequence (Q86WV6 whole entry C91S): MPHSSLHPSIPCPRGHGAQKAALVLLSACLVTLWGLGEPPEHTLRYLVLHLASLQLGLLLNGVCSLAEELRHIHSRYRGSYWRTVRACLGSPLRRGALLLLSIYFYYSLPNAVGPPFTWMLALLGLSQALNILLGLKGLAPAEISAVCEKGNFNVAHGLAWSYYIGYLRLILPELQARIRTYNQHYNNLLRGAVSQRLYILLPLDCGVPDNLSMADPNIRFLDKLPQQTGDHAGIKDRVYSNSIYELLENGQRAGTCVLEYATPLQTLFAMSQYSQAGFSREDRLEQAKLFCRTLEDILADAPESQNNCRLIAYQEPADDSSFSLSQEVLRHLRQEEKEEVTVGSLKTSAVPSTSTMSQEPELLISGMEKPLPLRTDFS

Assay [2] concerns the target T1, Stimulator of interferon genes protein (Mus musculus) (UniProt Q3TBT3).
T1 sequence (whole entry): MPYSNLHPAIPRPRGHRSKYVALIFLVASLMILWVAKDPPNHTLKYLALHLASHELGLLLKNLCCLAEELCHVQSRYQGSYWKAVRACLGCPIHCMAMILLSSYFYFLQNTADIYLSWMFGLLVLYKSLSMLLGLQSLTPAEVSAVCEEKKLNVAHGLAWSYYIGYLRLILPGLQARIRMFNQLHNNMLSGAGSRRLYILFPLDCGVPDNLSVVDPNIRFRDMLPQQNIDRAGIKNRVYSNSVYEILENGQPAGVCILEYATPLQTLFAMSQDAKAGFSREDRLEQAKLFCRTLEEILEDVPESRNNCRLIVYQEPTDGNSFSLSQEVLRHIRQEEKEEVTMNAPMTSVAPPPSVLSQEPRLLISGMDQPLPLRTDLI
Briefly: Induction of STING dimerization in mouse embryonic fibroblast cells at 2.5 to 20 uM measured after 5 hrs by Western blot analysis. The class given is cell-based. Particulars: MEF, filed as agonist, dose 2.5-20 µM. In general terms: In western blotting, separated proteins are transferred to a membrane and probed.

For assay [3], the system named is Herpes simplex virus unknown type. Briefly: Antiviral activity against HSV infected in human HT-1080 cells assessed as reduction viral protein ICP0 expression at 2.5 to 20 uM pretreated for 1 hr followed by infection measured after 18 hrs by Western blot analysis. The class given is functional, cell-based. Particulars: dose 2.5-20 µM, time 19.0 hrs.
Assay [4] concerns Stimulator of interferon genes protein (Homo sapiens), Q86WV6 [C88S,C91S]. Description: Induction of oligomerization of STING C88S/C91S (unknown origin) double mutant in human HeLa cells transfected with wild type STING assessed as intracellular puncta formation at 10 uM measured after 1 hr by DAPI staining based immunofluorescence microscopy. The class given is cell-based. Particulars: filed as agonist.
Stimulator of interferon genes protein (Homo sapiens), Q86WV6 [C88S,C91S], sequence (Q86WV6 whole entry C88S/C91S): as the sequence (Q86WV6 whole entry C91S) above, with C88S counted along it

For assay [5], the target named is Stimulator of interferon genes protein (Homo sapiens) (UniProt Q86WV6). Description: Induction of STING-dependent gene expression in human THP1 cells assessed as IFNbeta mRNA expression at 2.5 to 20 uM incubated for 8 hrs by qRT-PCR analysis. The class given is cell-based. Particulars: THP-1, filed as agonist, dose 2.5-20 µM.
Stimulator of interferon genes protein (Homo sapiens), sequence (Q86WV6 whole entry): as the sequence (Q86WV6 whole entry C91S) above, with S91C counted along it
The test system of assay [6] is HT-1080. Description: Cytotoxicity against human HT-1080 cells assessed as cell viability measured after 72 hrs by MTT assay. In kind it is functional, cell-based. To be noted: HT-1080, 72 h. For orientation: Tetrazolium assays rely on reduction of a dye to a coloured formazan, in cell work by metabolically active cells.
Assay [7] has as its system BMDM. Briefly: Effect on STING level in mouse BMDM cells at 2.5 to 20 uM incubated for 8 hrs by Western blot analysis. In kind it is functional, cell-based. To be noted: dose 2.5-20 µM.
The target in assay [8] is Stimulator of interferon genes protein (Homo sapiens) (UniProt Q86WV6). Description: Agonist activity at STING in human HT-1080 cells assessed as increase in TBK1 phosphorylation at 20 uM measured after 5 hrs by Western blot analysis. The class given is cell-based. Particulars: filed as agonist.
The nature of assay [9]: Antiviral activity against rhesus rotavirus assessed as inhibition of replication by qRT-PCR analysis. In kind it is functional, Simian rotavirus A strain RRV. (In general: Quantitative PCR measures a nucleic acid by following its amplification.)
The target of assay [10] is Stimulator of interferon genes protein (Homo sapiens) (UniProt Q86WV6). Briefly: Induction of STING-dependent gene expression in human HT-1080 cells assessed as increase in ADU-S100 induced IFNbeta mRNA expression at 20 uM incubated for 8 hrs by qRT-PCR analysis. The class given is cell-based. Particulars: filed as agonist.
Assay [11] has as its system HEK-293T. Briefly: Cytotoxicity against STING-deficient human 293T cells assessed as cell viability measured after 72 hrs by MTT assay. The class given is functional, cell-based.
For assay [12], the target named is T1, Stimulator of interferon genes protein (Mus musculus). Description: Induction of STING dimerization in mouse BMDM cells at 2.5 to 20 uM measured after 5 hrs by Western blot analysis. In kind it is cell-based. Particulars: filed as agonist, dose 2.5-20 µM.
In assay [13] the target is Stimulator of interferon genes protein (Homo sapiens) (UniProt Q86WV6). Briefly: Induction of STING dimerization in human THP1 cells at 2.5 to 20 uM measured after 5 hrs by Western blot analysis. In kind it is cell-based. Particulars: THP-1, filed as agonist, dose 2.5-20 µM.

Usually IC50 stands for the concentration that gives 50% inhibition. As a reminder, the EC50 is the concentration that produces a half-maximal response.

Active and inactive are the calls of the source. No cut-off for these calls is given here.

On to `O=C(NCCCCCNC(=O)c1ccc([N+](=O)[O-])o1)c1ccc([N+](=O)[O-])o1`, for which the result in [1], in assay [2], in [3], in assay [4], in [5] and in assay [8] was Active. Further, the outcome in [10], in assay [12] and in assay [13] was Active. Further, the IC50 in assay [6] is 9.31 µM; in assay [11] it was 22.4 µM. Besides, the outcome in [7] was inactive. Further, the EC50 in assay [9] is 6.8 µM.
